{"source": "patent US12509446B2", "about": "“FYN and VEGFR2 kinase inhibitors” (ROTTAPHARM BIOTECH S.R.L., priority 2019, dated 2025)", "key": {"[1]": {"assay": "Pharmacokinetics, oral route, mice", "conditions": "mouse, in vivo, read-out: Absolute bioavailability"}, "IL-6": {"tested_on": "IL-6", "assay": "Gene expression in rat articular chondrocytes under IL-1β stimulation, IL-6", "format": "cell-based", "conditions": "Rattus norvegicus, Chondrocyte; 6 h incubation"}, "[2]": {"molecular_target": "Fyn-NanoLuc fusion protein (Homo sapiens (Human), UniProt P06241)", "sequence (P06241 whole entry, the tested form may be a part)": "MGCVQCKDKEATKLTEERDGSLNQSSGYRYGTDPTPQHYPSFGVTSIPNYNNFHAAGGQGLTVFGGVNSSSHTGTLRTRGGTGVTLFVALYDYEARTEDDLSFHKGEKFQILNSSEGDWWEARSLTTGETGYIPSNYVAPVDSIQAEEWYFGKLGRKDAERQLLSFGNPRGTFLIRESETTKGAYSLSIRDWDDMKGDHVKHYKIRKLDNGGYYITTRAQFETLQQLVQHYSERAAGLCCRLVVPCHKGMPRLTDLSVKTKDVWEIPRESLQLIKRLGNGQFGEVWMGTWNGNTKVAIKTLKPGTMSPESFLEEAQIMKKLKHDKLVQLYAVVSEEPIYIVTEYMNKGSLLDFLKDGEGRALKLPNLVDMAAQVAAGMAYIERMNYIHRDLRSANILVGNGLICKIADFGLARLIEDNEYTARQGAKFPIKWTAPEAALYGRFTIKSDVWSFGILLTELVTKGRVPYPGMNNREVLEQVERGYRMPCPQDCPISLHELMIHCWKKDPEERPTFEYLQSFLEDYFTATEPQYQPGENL", "assay": "NanoBRET intracellular target engagement of Fyn in HEK293 transfected cells", "format": "cell-based", "conditions": "2 hours treatment, tracer 0.33 μM, read-out: IC50 binding value towards the Fyn-NanoLuc fusion protein", "protocol": "The NanoBRET™ TE intracellular kinase assay K-4 (Promega, #N2520) was used to determine the intracellular target engagement of Fyn kinase in HEK293 cells (ATCC®, Cat. CRL-1573) transiently transfected with Fyn-NanoLuc® fusion vector (Promega, #NV1411), therefore expressing the Fyn-NanoLuc© fusion protein. The tracer was used at the final concentration of 0.33 μM, and the treatment of cells with Compounds was performed for 2 hours. Luminescence values were measured at 450 nm and 610 nm (GloMax® Discover, Promega) and raw BRET ratio values for each sample were determined. Compounds that specifically engage the intracellular target protein-NanoLuc® fusion will result in a decrease in BRET signal and in lower BRET ratio values"}, "[3]": {"tested_on": "rat primary articular chondrocytes", "assay": "Toxicity analysis (MTT) in rat primary chondrocytes"}}}
{"compound": "Cc1ccc(NC(=O)c2cccc(C(F)(F)F)c2)cc1CCc1cc(Nc2cnccn2)[nH]n1", "note": "[Compound 3, N-(4-methyl-3-(2-(5-(pyrazin-2-ylamino)-1H-pyrazol-3-yl)ethyl)phenyl)-3-(trifluoromethyl)benzamide]", "values": [{"measurement": "bioavailability", "setting": "[1]", "result": "~12", "unit": "%"}, {"measurement": "IC50", "setting": "IL-6", "result": 18, "unit": "nM"}, {"measurement": "IC50", "setting": "[2]", "result": 1500, "unit": "nM"}, {"measurement": "First toxic concentration at 48 h in rat primary chondrocytes", "setting": "[3]; 48 h", "result": 3, "unit": "µM"}, {"measurement": "First toxic concentration at 24 h", "setting": "[3]; rat primary chondrocytes, 24 h", "result": 10, "unit": "µM"}]}
